Results: patent US9650427B2, “Modulators of antiviral signaling pathways and therapeutic uses thereof” (priority 2011, dated 2017)

Assays:
RLR/MAVS pathway = assay: PolyIC-induced IFN expression in polarized T84 cells, quantitative RT-PCR; assay type: cell-based, human; details: T84 cells pretreated 1 hour with peptide/inhibitor, then PolyIC for 5 hours; FIG. 2
Method: FIG. 2 includes graphs showing the inhibitory effects of the novel RLR/MAVS signaling inhibitor. The results are from T84 cells that were treated for 1 hr with the inhibitors shown and then treated with PolyIC (PIC) for 5 hours. Cytokine expression was then assessed by qPCR. The y-axis indicates fold induction over untreated cells (UI).
To determine if the MAVS peptide can block RLR signaling in human cells, experiments were performed in the human intestinal epithelial cell (IEC) line T84 comparing the peptide to a previously characterized antennapedia-peptide that targets the TLR adaptor MyD88. These cells were chosen because it is well-known that many viruses penetrate the intestinal epithelium and it has been shown that they respond naturally to both TLR and RLR ligands (FIG. 2 and data not shown). Polarized T84 cells were pretreated for 1 hour with each peptide and then treated for 5 hours with synthetic viral RNA PolyIC, which activates signaling by […]. […] This inhibitory affect was specific, as the IFN expression was unaffected in cells treated with control peptides.

[1] = system: antiviral responses in human cells; assay: Blocking of antiviral responses in human cells; assay type: cell-based; details: at micromolar concentrations
Source text: Accordingly, described herein is a cell-permeable peptide inhibitor of antiviral pathways that operates in every human cell. It consists of the cell penetrating domain of the Drosophila antennapedia protein and amino acids 50-73 of the human MAVS protein. […]. This peptide represents the first described means of blocking antiviral responses in human cells before or at any time after infection by a virus. Moreover, this molecule can serve as a therapeutic to treat inflammatory autoimmune diseases (e.g., those that are caused by inappropriate activation of antiviral responses). No other method currently exists to accomplish these goals.

| Compound | expression of Type I IFN (IFNβ) and Type III IFN IL-29 in response to PolyIC (RLR/MAVS pathway) | antiviral responses (expression of Type I and III interferons and interferon stimulated genes, including viperin) [1] |
| --- | --- | --- |
| CCN(CC)CCCC(C)Nc1ccnc2cc(Cl)ccc12 (stereo not drawn) [chloroquine, reference compound] | neither chloroquine (which blocks TLRs that detect viral RNA) nor inhibitors of the dsRNA dependent kinase PKR, affected | – |
| GNRDTLWHLFNTLQRRPGWVEYFI-RQIKIWFQNRRMKWKK (GNRDTLWHLFNTLQRRPGWVEYFIRQIKIWFQNRRMKWKK) [MAVS peptide, fusion peptide of amino acids 50-73 of MAVS and the cell penetrating domain of the antennapedia protein] | completely abolished | blocks antiviral responses in human cells at micromolar concentrations |
